Test [1] concerns the target T1, KRAS(G12C) (Homo sapiens, UniProt P01116, G12C). As to the kind of experiment: KRAS(G12C) Western blot protein degradation assay in LU65A cells. Also on record: LU65A human lung cancer cell line, which expresses KRAS(G12C); host or cells: LU65A. Format: cell-based. The conditions noted are these: 6 hr. The method in brief:
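KRAS levels read by fluorescent Western blot (β-actin as reference) on BCA-normalized lysates. Exposure to a compound concentration range at 37 °C lasted 6 hr in LU65A and 48 hr in MIA PaCa-2; DC50 taken as half-maximal degradation concentration.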
(Immunoblotting shows a protein as a band on a membrane.)

The subject of test [2] is MIA PaCa-2 human pancreatic carcinoma. As to the kind of experiment: MIA PaCa-2 CCK-8 proliferation assay. The test is classed as cell-based. The conditions noted are these: Homo sapiens, MIA PaCa-2, 72 h, MIA PaCa-2 cells. Summed up: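 KRAS(G12C) lines were used: MIA PaCa-2 with 2 copies, and NCI-H358 and NCI-H23 with 1 copy each. Cells were treated with 3-fold compound dilutions from 20 μM to 1.02 nM, and proliferation was read by CCK-8 absorbance. % inhibition was calculated against DMSO-treated cells after subtracting the cell-free medium blank.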

In test [3] the target is T1, KRAS(G12C). As to the kind of experiment: KRAS(G12C)/SOS1 homogeneous time-resolved fluorescence (HTRF) assay. The arrangement: purchased Cisbio 63ADK000CB16PEG. The conditions noted are these: absence of GTP, 4° C. for 3 hr, read-out: KRAS (G12C) binding. The method in brief:
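Three-hour incubation at 4 °C of 3-fold compound dilutions (lowest 1.02 nM) with KRAS(G12C), SOS1 and detection reagents, GTP absent. Disruption of the KRAS(G12C)/SOS1 complex detected by time-resolved fluorescence.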
A general note: TR-FRET usually uses a lanthanide donor and a delayed reading to cut background.

T1 sequence (P01116 1-188 isoform P01116-2 G12C): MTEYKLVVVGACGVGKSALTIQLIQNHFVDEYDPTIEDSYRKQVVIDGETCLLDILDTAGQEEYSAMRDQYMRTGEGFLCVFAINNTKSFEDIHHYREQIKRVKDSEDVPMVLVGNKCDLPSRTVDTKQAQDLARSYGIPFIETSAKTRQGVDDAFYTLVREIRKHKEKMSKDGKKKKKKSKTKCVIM

For orientation: DC50 means the midpoint of the concentration-degradation curve. Read a high DC50 as degradation only at high concentration. What is called EC50 is the concentration that produces a half-maximal response. A high value points to weaker potency. In turn, `C=CC(=O)N1CCN(c2nc(OC[C@@H]3C[C@H](N4CCN(CC5CCN(Cc6ccc(-n7c(C(=O)NCC)nnc7-c7cc(C(C)C)c(O)cc7O)cc6)CC5)CC4)CN3C)nc3c2CCN(c2cccc4cccc(Cl)c24)C3)C[C@@H]1CC#N` [Compound 276, 4-(4-{[4-({4-[(3S,5S)-5-({[7-(8-chloronaphthalen-1-yl)-4-[(3S)-3-(cyanomethyl)-4-(prop-2-enoyl)piperazin-1-yl]-5H,6H,8H-pyrido[3,4-d]pyrimidin-2-yl]oxy}methyl)-1-methylpyrrolidin-3-yl]piperazin-1-yl}methyl)piperidin-1-yl]methyl}phenyl)-5-(2,4-dihydroxy-5-isopropylphenyl)-N-ethyl-1,2,4-triazole-3-carboxamide] had a 50% degradation concentration (DC50) on KRAS(G12C) [1] greater than 1000 nM. In test [2], this molecule showed an EC50 of less than 100 nM. Moreover, the IC50 on KRAS(G12C) [3] was less than 100 nM.
At KRAS(G12C) [1], `C=CC(=O)N1CCN(c2nc(OC[C@@H]3C[C@H](N4CCN(Cc5ccc(-n6c(O)nnc6-c6cc(C(C)C)c(O)cc6O)cc5)CC4)CN3C)nc3c2CCN(c2cccc4ccc(F)c(Cl)c24)C3)C[C@@H]1CC#N` [Compound 277, 2-[(2S)-4-[7-(8-chloro-7-fluoronaphthalen-1-yl)-2-{[(2S,4S)-4-[4-({4-[3-(2,4-dihydroxy-5-isopropylphenyl)-5-hydroxy-1,2,4-triazol-4-yl]phenyl}methyl)piperazin-1-yl]-1-methylpyrrolidin-2-yl]methoxy}-5H,6H,8H-pyrido[3,4-d]pyrimidin-4-yl]-1-(prop-2-enoyl)piperazin-2-yl]acetonitrile] gave a DC50 greater than 1000 nM. In test [2], this molecule displayed an EC50 of 100 to 1000 nM. Besides, on KRAS(G12C) [3], the IC50 is less than 100 nM.
For `C=CC(=O)N1CCN(c2nc(OC[C@@H]3C[C@H](N4CCN(Cc5ccc(-n6c(C(=O)NCC)nnc6-c6cc(C(C)C)c(O)cc6O)cc5)CC4)CN3C)nc3c2CCN(c2cccc4ccc(F)c(Cl)c24)C3)C[C@@H]1CC#N` [Compound 278, 4-[4-({4-[(3S,5S)-5-({[7-(8-chloro-7-fluoronaphthalen-1-yl)-4-[(3S)-3-(cyanomethyl)-4-(prop-2-enoyl)piperazin-1-yl]-5H,6H,8H-pyrido[3,4-d]pyrimidin-2-yl]oxy}methyl)-1-methylpyrrolidin-3-yl]piperazin-1-yl}methyl)phenyl]-5-(2,4-dihydroxy-5-isopropylphenyl)-N-ethyl-1,2,4-triazole-3-carboxamide] the same measures were 100 to 1000 nM, 100 to 1000 nM and less than 100 nM.
Take `C=CC(=O)N1CCN(c2nc(OC[C@@H]3C[C@H](N4CCN(Cc5ccc(-n6c(O)nnc6-c6cc(C(C)C)c(O)cc6O)cc5)CC4)CN3C)nc3c2CCN(c2cccc4cccc(C)c24)C3)C[C@@H]1CC#N` [Compound 279, 2-[(2S)-4-(2-{[(2S,4S)-4-[4-({4-[3-(2,4-dihydroxy-5-isopropylphenyl)-5-hydroxy-1,2,4-triazol-4-yl]phenyl}methyl)piperazin-1-yl]-1-methylpyrrolidin-2-yl]methox-y}-7-(8-methylnaphthalen-1-yl)-5H,6H,8H-pyrido[3,4-d]pyrimidin-4-yl)-1-(prop-2-enoyl)piperazin-2-yl]acetonitrile]: the DC50 at KRAS(G12C) [1] was in the range of 100 to 1000 nM. In test [2], the concentration giving a half-maximal response (EC50) fell in the range of 100 to 1000 nM. Besides, on KRAS(G12C) [3], the IC50 is less than 100 nM.
For `C=CC(=O)N1CCN(c2nc(OC[C@@H]3C[C@H](N4CCN(Cc5ccc(-n6c(C(=O)NCC)nnc6-c6cc(C(C)C)c(O)cc6O)cc5)CC4)CN3C)nc3c2CCN(c2cccc4cccc(C)c24)C3)C[C@@H]1CC#N` [Compound 280, 4-[4-({4-[(3S,5S)-5-[({4-[(3S)-3-(cyanomethyl)-4-(prop-2-enoyl)piperazin-1-yl]-7-(8-methylnaphthalen-1-yl)-5H,6H,8H-pyrido[3,4-d]pyrimidin-2-yl}oxy)methyl]-1-methylpyrrolidin-3-yl]piperazin-1-yl}methyl)phenyl]-5-(2,4-dihydroxy-5-iso-propylphenyl)-N-ethyl-1,2,4-triazole-3-carboxamide], the DC50 at KRAS(G12C) [1] was 100 to 1000 nM. For the same molecule, the EC50 in test [2] was less than 100 nM. Moreover, the IC50 on KRAS(G12C) [3] is less than 100 nM.
Molecule `C=CC(=O)N1CCN(c2nc(OC[C@@H]3CC[C@H](CN4CCN(Cc5ccc(-n6c(O)nnc6-c6cc(C(C)C)c(O)cc6O)cc5)CC4)N3C)nc3c2CCN(c2cccc(C)c2C)C3)C[C@@H]1CC#N` [Compound 281, 2-[(2S)-4-(2-{[(2S,5R)-5-{[4-({4-[3-(2,4-dihydroxy-5-isopropylphenyl)-5-hydroxy-1,2,4-triazol-4-yl]phenyl}methyl)piperazin-1-yl]methyl}-1-methylpyrrolidin-2-yl]methoxy}-7-(2,3-dimethylphenyl)-5H,6H,8H-pyrido[3,4-d]pyrimidin-4-yl)-1-(prop-2-enoyl)piperazin-2-yl]acetonitrile] came in with a DC50 on KRAS(G12C) [1] of 100 to 1000 nM. The molecule further returned an EC50 in test [2] of 100 to 1000 nM. Further, on KRAS(G12C) [3], the IC50 was less than 100 nM.
`C=CC(=O)N1CCN(c2nc(OC[C@@H]3CC[C@H](CN4CCN(Cc5ccc(-n6c(C(=O)NCC)nnc6-c6cc(C(C)C)c(O)cc6O)cc5)CC4)N3C)nc3c2CCN(c2cccc(C)c2C)C3)C[C@@H]1CC#N` [Compound 282, 4-{4-[(4-{[(2R,5S)-5-[({4-[(3S)-3-(cyanomethyl)-4-(prop-2-enoyl)piperazin-1-yl]-7-(2,3-dimethylphenyl)-5H,6H,8H-pyrido[3,4-d]pyrimidin-2-yl}oxy)methyl]-1-methylpyrrolidin-2-yl]methyl}piperazin-1-yl)methyl]phenyl}-5-(2,4-dihydroxy-5-isopropylphenyl)-N-ethyl-1,2,4-triazole-3-carboxamide] gave a DC50 at KRAS(G12C) [1] of 100 to 1000 nM. This molecule also showed a concentration giving a half-maximal response (EC50) in test [2] of 100 to 1000 nM. Further, at KRAS(G12C) [3], the IC50 was less than 100 nM.
For the molecule `C=CC(=O)N1CCN(c2nc(OC[C@@H]3C[C@H](N4CCN(C(=O)C5CCN(Cc6ccc(-n7c(C(=O)NCC)nnc7-c7cc(C(C)C)c(O)cc7O)cc6)CC5)CC4)CN3C)nc3c2CCN(c2cccc4cccc(Cl)c24)C3)C[C@@H]1CC#N` [Compound 283, 4-{4-[(4-{4-[(3S,5S)-5-({[7-(8-chloronaphthalen-1-yl)-4-[(3S)-3-(cyanomethyl)-4-(prop-2-enoyl)piperazin-1-yl]-5H,6H,8H-pyrido[3,4-d]pyrimidin-2-yl]oxy}methyl)-1-methylpyrrolidin-3-yl]piperazine-1-carbonyl}piperidin-1-yl)methyl]phenyl}-5-(2,4-dihydroxy-5-isopropylphenyl)-N-ethyl-1,2,4-triazole-3-carboxamide], the DC50 on KRAS(G12C) [1] was less than 100 nM. In test [2], this molecule registered an EC50 of 100 to 1000 nM. Moreover, at KRAS(G12C) [3], the IC50 is less than 100 nM.
The molecule `C=CC(=O)N1CCN(c2nc(OCC3(CN4CCN(Cc5ccc(-n6c(O)nnc6-c6cc(C(C)C)c(O)cc6O)cc5)CC4)CC3)nc3c2CCN(c2cccc4cccc(Cl)c24)C3)C[C@@H]1CC#N` [Compound 284, 2-[(2S)-4-[7-(8-chloronaphthalen-1-yl)-2-[(1-{[4-({4-[3-(2,4-dihydroxy-5-isopropylphenyl)-5-hydroxy-1,2,4-triazol-4-yl]phenyl}methyl)piperazin-1-yl]methyl}cyclopropyl)methoxy]-5H,6H,8H-pyrido[3,4-d]pyrimidin-4-yl]-1-(prop-2-enoyl)piperazin-2-yl]acetonitrile] displayed a 50% degradation concentration (DC50) on KRAS(G12C) [1] of 100 to 1000 nM. In test [2], this molecule displayed an EC50 of 100 to 1000 nM. Further, the IC50 at KRAS(G12C) [3] is less than 100 nM.
`C=CC(=O)N1CCN(c2nc(OCC3(CN4CCN(Cc5ccc(-n6c(C(=O)NCC)nnc6-c6cc(C(C)C)c(O)cc6O)cc5)CC4)CC3)nc3c2CCN(c2cccc4cccc(Cl)c24)C3)C[C@@H]1CC#N` [Compound 285, 4-{4-[(4-{[1-({[7-(8-chloronaphthalen-1-yl)-4-[(3S)-3-(cyanomethyl)-4-(prop-2-enoyl)piperazin-1-yl]-5H,6H,8H-pyrido[3,4-d]pyrimidin-2-yl]oxy}methyl)cyclopropyl]methyl}piperazin-1-yl)methyl]phenyl}-5-(2,4-dihydroxy-5-isopropylphenyl)-N-ethyl-1,2,4-triazole-3-carboxamide] gave a DC50 at KRAS(G12C) [1] of 100 to 1000 nM. In test [2], the 50% effective concentration (EC50) was less than 100 nM. Further, the IC50 at KRAS(G12C) [3] is less than 100 nM.
On KRAS(G12C) [1], `C=C(F)C(=O)N1CCN(c2nc(OC[C@@H]3CC[C@H](CN4CCN(Cc5ccc(-n6c(O)nnc6-c6cc(C(C)C)c(O)cc6O)cc5)CC4)N3C)nc3c2CCN(c2cccc4ccccc24)C3)C[C@@H]1CC#N` [Compound 286, 2-[(2S)-4-(2-{[(2S,5R)-5-{[4-({4-[3-(2,4-dihydroxy-5-isopropylphenyl)-5-hydroxy-1,2,4-triazol-4-yl]phenyl}methyl)piperazin-1-yl]methyl}-1-methylpyrrolidin-2-yl]methoxy}-7-(naphthalen-1-yl)-5H,6H,8H-pyrido[3,4-d]pyrimidin-4-yl)-1-(2-fluoroprop-2-enoyl)piperazin-2-yl]acetonitrile] came in with a 50% degradation concentration (DC50) greater than 1000 nM. The EC50 in test [2] is less than 100 nM. Further, the IC50 on KRAS(G12C) [3] lay within 100 to 1000 nM.

These data come from patent US20230391772A1, “METHODS AND COMPOSITIONS FOR TARGETED PROTEIN DEGRADATION” (Ranok Therapeutics (Hangzhou) Co. Ltd., priority 2020, published 2023).
